Measured values published in patent publication US10941152B2, “Pyrazole compounds as modulators of FSHR and uses thereof” (TOCOPHERX, INC., priority 2014, dated 2021).

How the values were obtained:
FSHR = biological target: T1, FSHR (Homo sapiens, UniProt P23945); assay: EC50 of cyclic AMP production in CHO FSHR cells + EC20 FSH (Assay A); assay type: cell-based; conditions: cyclic AMP production in CHO FSHR cells + EC20 FSH (0.265 pM), HTRF
T1 construct: expressed in transfected cells; host or cells: CHO (Cho-FSHR-LUC-1-1-43)
T1 sequence (P23945 18-695): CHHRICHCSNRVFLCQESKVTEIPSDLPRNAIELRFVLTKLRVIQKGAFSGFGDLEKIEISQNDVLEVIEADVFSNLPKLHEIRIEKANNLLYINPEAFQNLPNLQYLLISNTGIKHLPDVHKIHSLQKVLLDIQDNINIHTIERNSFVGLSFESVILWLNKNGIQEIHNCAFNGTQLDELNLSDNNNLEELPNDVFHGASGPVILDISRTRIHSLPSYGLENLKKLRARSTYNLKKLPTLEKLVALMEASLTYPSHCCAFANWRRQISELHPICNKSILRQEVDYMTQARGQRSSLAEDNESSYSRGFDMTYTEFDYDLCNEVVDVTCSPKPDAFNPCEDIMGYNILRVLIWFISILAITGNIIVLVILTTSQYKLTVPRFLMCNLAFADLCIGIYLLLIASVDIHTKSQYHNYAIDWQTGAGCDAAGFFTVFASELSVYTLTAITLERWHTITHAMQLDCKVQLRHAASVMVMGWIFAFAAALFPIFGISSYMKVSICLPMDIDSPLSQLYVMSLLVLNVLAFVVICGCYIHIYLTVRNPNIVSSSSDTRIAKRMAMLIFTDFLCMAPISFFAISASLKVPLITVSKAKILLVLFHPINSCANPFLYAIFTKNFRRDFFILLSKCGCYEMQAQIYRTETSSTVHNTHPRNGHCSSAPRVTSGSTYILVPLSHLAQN
Procedure: Example 24. EC50 of cyclic AMP production in CHO FSHR cells+EC20 FSH (Assay A)
2500 Cho-FSHR-LUC-1-1-43 cells were plated per well in 5 al of phenol red free DMEM/F12+1% FBS. Cells were plated in 384 well, solid white low volume plates (Greiner 784075) by Multidrop. Cells were assayed by adding 100 al of 2×EC20 FSH/IBMX in DMEM/F12+0.1% BSA) by Multidrop to 2 al of test compound stamped in 384 well plates (compounds are diluted 1:50). The final FSH concentration was 0.265 pM, and the final IBMX concentration was 200 μM. The compound plate map was as follows: Column 1: 2 μl of DMSO; Column 2: 2 μl of DMSO; Columns 3-12 and 13-24: 2 μl of test compound, diluted 1:4 in 100% DMSO, or 2 μl of FSH, diluted 1:4 in DMEM/F12+0.1% BSA. The starting concentration for FSH was 50 nM (final concentration was 0.5 nM). Furthermore, Column 23 contained 2 μl of EC100 FSH reference (100×) (diluted in DMEM/F12+0.1% BSA) at a final concentration of 0.5 nM, and Column 24 contained 2 μl of 1 mM AS707664/2 reference compound 2. 5 μl of compound+EC20 FSH mixture were transferred to cell plates (1:2 dilution into 5 μl of cell media) The plates were incubated at 37° C. for 1 h. 10 μl of mixed HTRF (CisBio #62AM4PEC) reagents were added per well and incubated at room temperature for 1 h. The plates were read on Envision using the cAMP HTRF—low volume 384 well protocol. The readout was the calculated fluorescence ratio (665 nm/620 nm). Values given in percent (%) indicate the percental effect (response) at a certain concentration of agonist relative to the maximum response of the FSH standard.

[1] = biological target: T2, follicle-stimulating hormone (FSH) receptor (Rattus norvegicus, UniProt P20395); assay: Rat granulosa EC50 FSH (Assay B); assay type: cell-based
T2 construct: endogenous in cells; host or cells: rat granulosa cells
T2 sequence (P20395 18-692): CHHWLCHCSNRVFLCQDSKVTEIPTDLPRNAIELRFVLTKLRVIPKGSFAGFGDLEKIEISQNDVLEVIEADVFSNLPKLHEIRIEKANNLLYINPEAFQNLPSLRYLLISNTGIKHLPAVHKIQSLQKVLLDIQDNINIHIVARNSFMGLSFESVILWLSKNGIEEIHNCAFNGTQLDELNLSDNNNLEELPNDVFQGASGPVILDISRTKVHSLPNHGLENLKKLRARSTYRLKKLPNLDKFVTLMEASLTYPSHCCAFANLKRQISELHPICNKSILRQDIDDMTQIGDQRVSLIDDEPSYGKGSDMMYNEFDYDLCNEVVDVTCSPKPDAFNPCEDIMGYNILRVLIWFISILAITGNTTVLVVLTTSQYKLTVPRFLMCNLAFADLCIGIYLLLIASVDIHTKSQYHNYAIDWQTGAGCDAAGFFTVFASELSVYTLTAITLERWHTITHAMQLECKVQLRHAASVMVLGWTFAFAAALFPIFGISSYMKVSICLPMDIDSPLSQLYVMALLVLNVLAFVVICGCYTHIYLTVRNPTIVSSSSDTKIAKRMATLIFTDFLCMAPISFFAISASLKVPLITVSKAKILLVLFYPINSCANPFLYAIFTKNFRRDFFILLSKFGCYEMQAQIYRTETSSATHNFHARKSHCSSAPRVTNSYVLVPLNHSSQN
Procedure: Example 25. Rat granulosa EC50 FSH (Assay B)
The assay was performed pursuant to the teaching of Yanofsky et al. (2006) Allosteric activation of the follicle-stimulating hormone (FSH) receptor by selective, nonpeptide agonists (JBC 281(19): 13226-13233, which is incorporated by reference in the disclosure of the invention).

Compound | EC50 (FSHR) [µM] | EC50 [1] [µM]
COc1cc2c(cc1-c1cnn(CC(O)CO)c1)-c1c(c(C(=O)N(C)C(C)(C)C)nn1-c1cc(Cl)cc(Cl)c1)CO2 (single isomer, unassigned) [Compound 191, N-tert-butyl-1-(3,5-dichlorophenyl)-8-(1-(2,3-dihydroxypropyl)-1H-pyrazol-4-yl)-7-methoxy-N-methyl-1,4-dihydrochromeno[4,3-c]pyrazole-3-carboxamide] | 0.01 to 0.1 | 0.101 to 0.5
COc1cc2c(cc1-c1cnn(CCO)c1)-c1c(c(C(=O)N(C)C(C)(C)C)nn1-c1cc(Cl)cc(Cl)c1)CO2 [Compound 1, N-tert-butyl-1-(3,5-dichlorophenyl)-8-(1-(2-hydroxyethyl)-1H-pyrazol-4-yl)-7-methoxy-N-methyl-1,4-dihydrochromeno[4,3-c]pyrazole-3-carboxamide] | < 0.01 | 0.01 to 0.1
COc1cc2c(cc1-c1cnn(CC(N)=O)c1)-c1c(c(C(=O)N(C)C(C)(C)C)nn1-c1cc(Cl)cc(Cl)c1)CO2 [Compound 2, 8-(1-(2-amino-2-oxoethyl)-1H-pyrazol-4-yl)-N-tert-butyl-1-(3,5-dichlorophenyl)-7-methoxy-N-methyl-1,4-dihydrochromeno[4,3-c]pyrazole-3-carboxamide] | < 0.01 | 0.01 to 0.1
COc1cc2c(cc1-c1cccnc1F)-c1c(c(C(=O)N(C)C(C)(C)C)nn1-c1cc(Cl)cc(Cl)c1)CO2 [Compound 3, N-tert-butyl-1-(3,5-dichlorophenyl)-8-(2-fluoropyridin-3-yl)-7-methoxy-N-methyl-1,4-dihydrochromeno[4,3-c]pyrazole-3-carboxamide] | < 0.01 | 0.01 to 0.1
COc1cc2c(cc1-c1ccn(C)n1)-c1c(c(C(=O)N(C)C(C)(C)C)nn1-c1cc(Cl)cc(Cl)c1)CO2 [Compound 4, N-tert-butyl-1-(3,5-dichlorophenyl)-7-methoxy-N-methyl-8-(1-methyl-1H-pyrazol-3-yl)-1,4-dihydrochromeno[4,3-c]pyrazole-3-carboxamide] | 0.01 to 0.1 | > 0.5
COc1cc2c(cc1-c1ccn(C)n1)-c1c(c(C(=O)N3CC[S+]([O-])CC3(C)C)nn1-c1cc(Cl)cc(Cl)c1)CO2 (centres unmarked) [Compound 5, 4-{[1-(3,5-dichlorophenyl)-7-methoxy-8-(1-methyl-1H-pyrazol-3-yl)-1H,4H-chromeno[4,3-c]pyrazol-3-yl]carbonyl}-3,3-dimethyl-1$1^4,4-thiomorpholin-1-one] | 0.01 to 0.1 | 0.101 to 0.5
COc1cc2c(cc1-c1cccnc1F)-c1c(c(C(=O)N3CC[S+]([O-])CC3(C)C)nn1-c1cc(Cl)cc(Cl)c1)CO2 (centres unmarked) [Compound 6, (1-(3,5-dichlorophenyl)-8-(2-fluoropyridin-3-yl)-7-methoxy-1H,4H-chromeno[4,3-c]pyrazol-3-yl)(S-oxo-3,3-dimethylthiomorpholino)methanone] | < 0.01 | 0.101 to 0.5
COc1cc2c(cc1-c1ccn(C)n1)-c1c(c(C(=O)N3CCC(O)CC3(C)C)nn1-c1cc(Cl)cc(Cl)c1)CO2 (centres unmarked) [Compound 7, (1-(3,5-dichlorophenyl)-7-methoxy-8-(1-methyl-1H-pyrazol-3-yl)-1,4-dihydrochromeno[4,3-c]pyrazol-3-yl)(4-hydroxy-2,2-dimethylpiperidin-1-yl)methanone] | 0.01 to 0.1 | 0.101 to 0.5
COc1cc2c(cc1-c1cncc(C#N)c1)-c1c(c(C(=O)N(C)C(C)(C)C)nn1-c1cc(Cl)cc(Cl)c1)CO2 [Compound 8, N-tert-butyl-8-(5-cyanopyridin-3-yl)-1-(3,5-dichlorophenyl)-7-methoxy-N-methyl-1,4-dihydrochromeno[4,3-c]pyrazole-3-carboxamide] | < 0.01 | 0.101 to 0.5
COc1cc2c(cc1-c1ccn(C)n1)-c1c(c(C(=O)N3CCOCC3(C)C)nn1-c1cc(Cl)cc(Cl)c1)CO2 [Compound 9, (1-(3,5-dichlorophenyl)-7-methoxy-8-(1-methyl-1H-pyrazol-3-yl)-1,4-dihydrochromeno[4,3-c]pyrazol-3-yl)(3,3-dimethylmorpholino)methanone] | < 0.01 | 0.101 to 0.5
COc1cc2c(cc1-c1ccccn1)-c1c(c(C(=O)N3CCC(O)CC3(C)C)nn1-c1cc(Cl)cc(Cl)c1)CO2 (centres unmarked) [Compound 10, (1-(3,5-dichlorophenyl)-7-methoxy-8-(pyridin-2-yl)-1,4-dihydrochromeno[4,3-c]pyrazol-3-yl)(4-hydroxy-2,2-dimethylpiperidin-1-yl)methanone] | < 0.01 | 0.01 to 0.1
COc1cc2c(cc1-c1cncc(C#N)c1)-c1c(c(C(=O)N3CCOCC3(C)C)nn1-c1cc(Cl)cc(Cl)c1)CO2 [Compound 12, 5-(1-(3,5-dichlorophenyl)-3-(3,3-dimethylmorpholine-4-carbonyl)-7-methoxy-1,4-dihydrochromeno[4,3-c]pyrazol-8-yl)nicotinonitrile] | < 0.01 | 0.01 to 0.1
COc1cc2c(cc1-c1cccnc1C#N)-c1c(c(C(=O)N(C)C(C)(C)C)nn1-c1cc(Cl)cc(Cl)c1)CO2 [Compound 14, N-tert-butyl-8-(2-cyanopyridin-3-yl)-1-(3,5-dichlorophenyl)-7-methoxy-N-methyl-1,4-dihydrochromeno[4,3-c]pyrazole-3-carboxamide] | < 0.01 | 0.01 to 0.1
COc1cc2c(cc1-c1ccc(N)nc1)-c1c(c(C(=O)N(C)C(C)(C)C)nn1-c1cc(Cl)cc(Cl)c1)CO2 [Compound 16, 8-(6-aminopyridin-3-yl)-N-tert-butyl-1-(3,5-dichlorophenyl)-7-methoxy-N-methyl-1,4-dihydrochromeno[4,3-c]pyrazole-3-carboxamide] | < 0.01 | 0.101 to 0.5
COc1cc2c(cc1-c1cnc(N)c(C)c1)-c1c(c(C(=O)N(C)C(C)(C)C)nn1-c1cc(Cl)cc(Cl)c1)CO2 [Compound 17, 8-(6-amino-5-methylpyridin-3-yl)-N-tert-butyl-1-(3,5-dichlorophenyl)-7-methoxy-N-methyl-1,4-dihydrochromeno[4,3-c]pyrazole-3-carboxamide] | < 0.01 | 0.101 to 0.5
COc1cc2c(cc1-c1cccc(C#N)c1)-c1c(c(C(=O)N(C)C(C)(C)C)nn1-c1cc(Cl)cc(Cl)c1)CO2 [Compound 18, N-tert-butyl-8-(3-cyanophenyl)-1-(3,5-dichlorophenyl)-7-methoxy-N-methyl-1,4-dihydrochromeno[4,3-c]pyrazole-3-carboxamide] | 0.01 to 0.1 | 0.101 to 0.5
